Experimental data published in US8551997B2, “Structural-based inhibitors of the glutathione binding site in aldose reductase, methods of screening therefor and methods of use” (The Board of Regents of the University of Texas System, priority 2004, dated 2013).
Like-named read-outs stand apart in the source and are kept apart here.

Experiments:
Caco-2 cells [1] = experiment: Cyclooxygenase activity assay in Caco-2 cells; format: cell-based, human; set-up: dose or concentration left out as unconfirmed; conditions: 24 h
Description: For determination of Cox activity growth-arrested Caco-2 cells were treated with either 10 ng/ml BFGF or PDGF in the absence and presence of sorbinil […] for 24 h. The cells were harvested and homogenized in cold (4° C.) buffer containing 0.1M Tris-Hcl, pH 7.8 and 1 mM EDTA and the activity was measured in 96 well plate according to the manufacturer's (Cayman Chemical Co., Inc.) instructions. Briefly, 10 μl of standard/sample were incubated in the presence of arachidonic acid and substrate, N,N, N,N-tetra methyl-p-phenylenediamine (TMPD) in a total reaction volume of 210 μl. The Cox peroxidase activity was measured colorimetrically by monitoring appearance of oxidized TMPD at 590 nm by using ELISA reader.

mice = conditions: for survival: sorbinil pre-treatment
Description: Therefore increasing doses of LPS was administered to determine the dose at which fifty percent lethality occurred (LD50) in the presence or absence of aldose reductase inhibitor (ARI) in order to determine if ARI protected mice for LPS-induced death (FIG. 7D).

C57BL/6 mice = experiment: LPS signaling in the heart (NF-kB, AP1, iNOS, kinases); format: in vivo, mouse
From the text: At the indicated times, NF-kB activation (FIG. 8A), AP1 activation with an electrophoretic mobility shift assay (FIG. 8B), iNOS expression by western blotting (FIG. 8C), or PKC activation with a total PKC assay system (FIG. 8D) (SignaTect, Promega), or phosphorylated forms of the indicated kinases by western blotting (FIG. 8E), was detected. Values are means±SEM (N=4). *P<0.001 versus LPS-treated mice. OD, optical density.
In sorbinil-treated mice, however, activation of NF-κB and AP1 decreased by ˜70% at 2 h, and the levels returned to baseline by 24 h. […] These findings are consistent with the downregulation of inflammatory cytokines and chemokines in the serum and heart upon AR inhibition (FIGS. 8A-8D). […] AR inhibition attenuated the phosphorylation of almost all members of this cascade (FIG. 8D-8E). Thus, AR appears to […] the inflammatory cascade by regulating the activation of NF-κB, thereby protecting against cardiovascular collapse in the setting of overwhelming sepsis.

HT29 cells = experiment: PGE2 assay in HT29 cells; format: cell-based; conditions: inhibitor alone
Description: Caco-2 cells were plated in 6 well plates at a density of 2×10^5 cells/well. After 24 hours, the medium was replaced with fresh medium containing 0.1% serum with or without, sorbinil (20 μM) followed by treatment with either 10 ng/ml BFGF or PDGF, for another 24 h. HT29 cells were plated in 6 well plate at a density of 2×10^5 cells/well. After 24 hours, medium was replaced with serum-free medium with or without, sorbinil or zopolrestat (20 μM) followed by treatment with either EGF (5 ng/ml) or BFGF (10 ng/ml) for another 24 h. The medium from each cell lines was collected from each well and analyzed for PGE2 by using an Enzyme Immuno Assay kit according to the manufacturer's instructions (Cayman Chemical Co., Inc.).
Briefly, 50 μl of diluted standard/sample were pipetted into a pre-coated goat polyclonal anti-mouse IgG 96-well plate. Aliquots (50 μl) of a PGE2 monoclonal antibody and PGE2 acetylcholine esterase (AchE) conjugate, (PGE2 tracer) were added to each well and allowed to incubate at 4° C. for 24 h. After incubation, the wells were washed five times with wash buffer containing 0.05% Tween-20, followed by the addition of 200 μl of Ellman's reagent containing acetylthiocholine and 5,5′-dithio-bis-(2-nitrobenzoic acid). Samples were read after 60 min at 412 nm with an ELISA reader. […]

Caco-2 cells [2] = experiment: Reactive oxygen species in Caco-2 cells (DCFH-DA); format: cell-based, human; conditions: 20 μM, FGF or PDGF 10 ng/ml 60 min
Description: Caco-2 cells were plated in a 24-well plate at a density of 1.5×10^4 cells/well in DMEM and then serum-starved at 60-70% confluence in the absence and presence of 20 μM sorbinil or tolrestat for overnight in phenol red-free DMEM supplemented with 0.1% FBS. Cells were then pre-incubated for 30 min with the ROS-sensitive fluorophore 2′,7′-dichlorofluorescein diacetate (DCFH-DA), which is taken up and oxidized to the fluorescent dichlorofluorescein by intracellular ROS. After incubation with DCFH-DA, the cells were exposed to FGF or PDGF 10 ng/ml for 60 min and fluorescence was measured with a CytoFluorII fluorescence plate reader (PerSeptive Biosystems, Inc., Framingham, Mass.) at excitation of 485 nm and emission of 528 nm.

RAW264.7 macrophages = experiment: LPS- and lipid aldehyde-induced signaling in RAW264.7 macrophages; format: cell-based; set-up: HNE and protein-HNE adduct levels: dose or concentration left out as unconfirmed
Description: At the indicated times, cells were harvested for measurement of HNE (FIG. 5A), protein-HNE adducts (FIG. 5B), NF-kB (FIG. 5C), and TNF-a and IL-6 (FIG. 5D) as described in the methods. Cells were growth arrested as described above or transfected with control or AR siRNA oligonucleotides, incubated with GS-HNE-ester, or GS-DHN-ester (1 mM), and harvested for determination of NF-kB (FIG. 5E), membrane-bound total PKC (FIG. 5F).
To determine if GS-DHN serves as a cellular sensor of ROS-induced insults, its effects on phosphorylation events upstream of IKK/NF-κB activation in RAW264.7 macrophages was examined.

isolated mouse hearts = experiment: Isolated mouse hearts (Langendorff preparation) challenged with LPS; conditions: perfusion with sorbinil in the presence of LPS

(S)-6-fluorospiro[chroman-4,4′-imidazolidine]-2,5′-dione [sorbinil]
BFGF and PDGF-induced Cox activity (Caco-2 cells [1]): abolished | LD50 for LPS with sorbinil post-treatment (mice; sorbinil 2 h after LPS, 48 h survival): 20 mg/kg | LD50 for LPS with sorbinil pre-treatment (mice; sorbinil 24 h before LPS, 48 h survival): 24 mg/kg | survival (mice; LPS 14 mg/kg): approximately 90% | survival (mice; LPS 24 mg/kg): over 60% | cardiac iNOS levels (C57BL/6 mice; after LPS): increased only slightly | phosphorylation of upstream kinases of NF-κB and AP1 (MAPK, IKK, PKC, PLC) in the heart (C57BL/6 mice; after LPS): attenuated | decrease of cardiac AP1 activation (C57BL/6 mice; at 2 h after LPS): ~70% | decrease of cardiac NF-κB activation (C57BL/6 mice; at 2 h after LPS): ~70% | time at which NF-κB and AP1 levels returned to baseline (C57BL/6 mice; mouse, in vivo): ≤ 24 h | constitutive levels of PGE2 (HT29 cells): did not inhibit | growth factor-induced increase in ROS (Caco-2 cells [2]): inhibited | HNE and protein-HNE adduct levels (RAW264.7 macrophages): increased | ability of GS-DHN to activate NF-κB (RAW264.7 macrophages): had no effect | effects of HNE/GS-HNE on IKK-a/b phosphorylation and NF-kB translocation (RAW264.7 macrophages): significantly blunted | LPS-induced NF-κB and cytokine activation (RAW264.7 macrophages; LPS 1 mg/ml, sorbinil 10 mM): significantly decreased | time to maximal ±dP/dt, coronary perfusion pressure, coronary vascular resistance, heart rate (isolated mouse hearts): unaffected | left ventricular pressure (LVP), +dP/dtmax and −dP/dtmax (isolated mouse hearts; compared to vehicle): significantly increased
